Source: US5478723A, “Method and apparatus for determining the role of cytochrome P450 and related enzymes in the metabolism of drugs and other chemicals” (priority 1993, dated 1995)
Entries after “also recorded” stand apart in the source; their conditions may differ.

Assays:
cytochrome P450 = conditions: in vivo; cited from earlier work
CYP2CMp = conditions: in vivo; cited from earlier work
CYP2D6 enzyme = conditions: background or known; cited from earlier work
labor at term [1] = experiment: Clinical trials of sparteine for inducing labor at term; type: in vivo, human; conditions: of all Caucasians; expected from CYP2D6 deficiency
Description: The drug was not recommended for clinical use because these side effects were unpredictable and occurred at doses of […], which were well tolerated by other patients.

labor at term [2] = conditions: cited from earlier work
CYP3A enzymes = conditions: cited from earlier work
CYP2D6 = conditions: cited from earlier work
CYP1A2 enzyme = conditions: known; cited from earlier work
liver = conditions: in vivo; cited from earlier work
CYP2A6 enzyme = conditions: cited from earlier work
[3] = administered with ketoconazole or erythromycin; cited from earlier work

CN/C(=N/CCSCc1nc[nH]c1C)NC#N [cimetidine]
effect on cytochrome P450 activity (cytochrome P450): depresses P450 activity

CCC1(c2ccccc2)NC(=O)N(C)C1=O (stereo not drawn) [Mephenytoin]
enzyme which metabolizes the drug (CYP2CMp): metabolized by CYP2CMp

COc1ccc2c(c1)[C@]13CCCC[C@@H]1[C@H](C2)N(C)CC3 (stereo in doubt) [dextromethorphan]
enzyme which metabolizes the drug (CYP2D6 enzyme): metabolized by the CYP2D6 enzyme

C1CCN2C[C@@H]3C[C@@H](CN4CCCC[C@@H]34)[C@H]2C1 [sparteine]
expected poor metabolizers (labor at term [1]): 5-10%
potency for inducing labor at term (labor at term [2]; clinical trials, United States, late 1950's): as potent as oxytocin
patients with dramatically increased duration and intensity of action (labor at term [2]; of all patients tested): about 7%
patients with exaggerated response (labor at term [2]; patients administered during clinical trials): 7%
side effects (exaggerated response) (labor at term [2]; some patients): prolonged uterine contraction and abnormally rapid labor; also recorded: caused death of the fetus

CC(=O)N1CCN(c2ccc(OCC3COC(Cn4ccnc4)(c4ccc(Cl)cc4Cl)O3)cc2)CC1 (stereo not drawn) [ketoconazole]
inhibition of CYP3A enzymes (CYP3A enzymes): potent inhibitors of the CYP3A enzymes

CO[C@H]1/C=C/O[C@@]2(C)Oc3c(C)c(O)c4c(O)c(c(/C=N/N5CCN(C)CC5)c(O)c4c3C2=O)NC(=O)/C(C)=C\C=C\[C@H](C)[C@H](O)[C@@H](C)[C@@H](O)[C@@H](C)[C@H](OC(C)=O)[C@@H]1C [rifampin]
effect on cytochrome P450 activity (cytochrome P450): increase cytochrome P450 activity
effect on metabolism of contraceptive steroids (cytochrome P450): increased rate of metabolism of contraceptive steroids

CCC1(c2ccccc2)C(=O)NC(=O)NC1=O [phenobarbital]
effect on cytochrome P450 activity (cytochrome P450): increase cytochrome P450 activity
effect on metabolism of contraceptive steroids (cytochrome P450): increased rate of metabolism of contraceptive steroids

N=C(N)N1CCc2ccccc2C1 [debrisoquine]
poor metabolizers among Caucasians (CYP2D6; Caucasians): 5-10%
enzyme which metabolizes the drug (CYP2D6; in vivo): metabolized by CYP2D6

Cn1c(=O)c2c(ncn2C)n(C)c1=O [caffeine]
enzyme which metabolizes the drug (CYP1A2 enzyme): metabolized by the CYP1A2 enzyme

CC(=O)Nc1ccc(O)cc1 [acetaminophen]
origin of liver toxicity (liver): due to a toxic metabolite that is generated by cytochrome P450

O=c1ccc2ccccc2o1 [coumarin]
enzyme which metabolizes the drug (CYP2A6 enzyme): metabolized by the CYP2A6 enzyme

CC[C@@]1(c2ccccc2)NC(=O)N(C)C1=O [S-mephenytoin]
poor metabolizers among Caucasians (CYP2CMp): less than 5%
poor metabolizers among Japanese subjects (CYP2CMp): about 20%

CC(C)(C)c1ccc(C(O)CCCN2CCC(C(O)(c3ccccc3)c3ccccc3)CC2)cc1 (stereo not drawn) [terfenadine]
cardiac adverse reaction [3]: Torsades de Points
